Results as given in ChEMBL document CHEMBL4359853, “Antiproliferative activity of (R)-4'-methylklavuzon on hepatocellular carcinoma cells and EpCAM+/CD133+ cancer stem cells via SIRT1 and Exportin-1 (CRM1) inhibition” (Eur J Med Chem, 2019).
Activity calls are given as the source filed them. The rule behind the calls is not given here.

What was measured:
[1] = biological target: T1, NAD-dependent protein deacetylase sirtuin-1 (Homo sapiens) (UniProt Q96EB6); assay: Inhibition of human recombinant SIRT1 at 100 uM using FLUOR DE LYS SIRT1, deacetylase as substrate preincubated for 2 mins followed by substrate addition measured after 1 hr in presence of NAD+ by fluorescence assay relative to control
T1 sequence (whole entry): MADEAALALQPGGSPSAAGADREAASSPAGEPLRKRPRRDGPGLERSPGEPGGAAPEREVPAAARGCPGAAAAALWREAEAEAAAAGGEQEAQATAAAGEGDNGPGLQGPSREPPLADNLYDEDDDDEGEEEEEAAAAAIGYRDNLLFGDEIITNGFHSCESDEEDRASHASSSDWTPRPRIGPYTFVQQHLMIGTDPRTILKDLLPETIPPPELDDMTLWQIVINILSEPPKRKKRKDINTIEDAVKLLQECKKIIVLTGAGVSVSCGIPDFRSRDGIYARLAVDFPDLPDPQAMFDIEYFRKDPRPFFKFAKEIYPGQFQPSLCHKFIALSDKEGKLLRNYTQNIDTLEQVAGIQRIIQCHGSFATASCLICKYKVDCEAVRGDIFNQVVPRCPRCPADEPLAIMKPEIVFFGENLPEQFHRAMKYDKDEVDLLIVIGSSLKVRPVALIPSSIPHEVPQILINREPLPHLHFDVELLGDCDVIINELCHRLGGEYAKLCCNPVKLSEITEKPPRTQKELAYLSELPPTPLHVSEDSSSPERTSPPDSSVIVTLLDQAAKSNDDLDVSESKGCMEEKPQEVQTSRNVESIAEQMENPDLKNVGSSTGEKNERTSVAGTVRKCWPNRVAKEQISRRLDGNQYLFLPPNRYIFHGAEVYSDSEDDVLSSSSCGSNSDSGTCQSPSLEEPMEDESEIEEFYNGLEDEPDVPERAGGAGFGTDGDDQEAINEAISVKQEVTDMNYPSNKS

[2] = system: Huh-7; assay: Induction of apoptosis in human HuH7 cells assessed as loss of spheroid morphology at 62.5 uM measured after 48 hrs by inverted light microscopy based matrigel assay; format: functional, cell-based
[3] = biological target: Exportin-1 (Homo sapiens) (UniProt O14980); assay: Inhibition of CRM1 in human HepG2 cells assessed as upregulation of p53 by measuring accumulation in nucleus at 0.1 to 10 uM measured after 6 to 24 hrs by DAPI staining based immunofluorescence microscopy analysis; format: cell-based
[4] = system: Huh-7; assay: Upregulation of SIRT1 in human HuH7 cells assessed as fold change at 1 uM measured after 24 hrs by ELISA relative to control; format: functional
[5] = biological target: Histone-lysine N-methyltransferase EZH2 (Homo sapiens) (UniProt Q15910); assay: Activation of EZH2 in human HuH7 cells assessed as upregulation of H3K27me3 expression measured after 4 hrs by Western blot analysis; format: cell-based
[6] = system: Huh-7; assay: Upregulation of p21 expression in human HuH7 cells expressing negative EpCAM/CD133 at 1 to 3 uM measured after 72 hrs by SYBR-green based qPCR analysis; format: functional, cell-based
[7] = organism: Homo sapiens; assay: Inhibition of class 1/2 HDAC in human HuH7 nuclear extract at 0.1 to 81 uM after 24 hrs by fluorescence based assay
[8] = system: Huh-7; assay: Upregulation of p27 expression in human HuH7 cells at 1 to 3 uM measured after 24 to 72 hrs by SYBR-green based qPCR analysis; format: functional, cell-based
[9] = system: Huh-7; assay: Cytotoxicity against human HuH7 cells expressing positive EpCAM/CD133 assessed as reduction in cell viability measured after 72 hrs by MTT assay; format: functional, cell-based; conditions: Huh-7, 72 h
[10] = organism: Homo sapiens; assay: Inhibition of class 1/2 HDAC in human HuH7 negative EpCAM/CD133 cells nuclear extract at 0.1 to 81 uM after 24 hrs by fluorescence based assay
[11] = system: Huh-7; assay: Induction of apoptosis in human HuH7 negative EpCAM/CD133 cells assessed as change in cell morphology at 0.1 to 10 uM measured after 48 hrs by 2D microscopic analysis; format: functional, cell-based
[12] = system: Huh-7; assay: Induction of apoptosis in human HuH7 negative EpCAM/CD133 cells assessed as increase in early apoptotic cells measured after 48 hrs by Annexin V-FITC/propidium iodide staining based flow cytometry analysis; format: functional, cell-based
[13] = system: HepG2; assay: Cytotoxicity against human HepG2 cells assessed as reduction in cell viability measured after 72 hrs by MTT assay; format: functional, cell-based; conditions: HepG2, 72 h
[14] = system: Huh-7; assay: Cell cycle arrest in human HuH7 cells assessed as increase in cell accumulation at G2 phase at 10 uM measured after 48 hrs by propidium iodide staining based flow cytometry analysis; format: functional
[15] = biological target: Histone-lysine N-methyltransferase EZH2 (Homo sapiens) (UniProt Q15910); assay: Activation of EZH2 in human HuH7 cells expressing positive EpCAM/CD133 assessed as upregulation of H3K27me3 expression measured after 4 hrs by Western blot analysis; format: cell-based
[16] = system: Huh-7; assay: Cytotoxicity against human HuH7 cells assessed as reduction in cell viability measured after 48 to 72 hrs by MTT assay; format: functional, cell-based
[17] = system: Huh-7; assay: Induction of reactive oxygen species generation in human HuH7 cells at 1 uM measured after 24 hrs by DCFDA staining assay; format: functional, cell-based
[18] = system: Huh-7; assay: Induction of apoptosis in human HuH7 cells expressing positive EpCAM/CD133 assessed as loss of spheroid morphology at 62.5 uM measured after 48 hrs by inverted light microscopy based matrigel assay; format: functional, cell-based
[19] = biological target: Histone deacetylase 1 (Homo sapiens) (UniProt Q13547); assay: Inhibition of human recombinant HDAC1 using FLUOR DE LYS SIRT1, deacetylase as substrate preincubated for 2 mins followed by substrate addition measured after 1 hr by fluorescence assay
[20] = organism: Homo sapiens; assay: Inhibition of class 1/2 HDAC in human HuH7 EpCAM/CD133 positive cells nuclear extract at 0.1 to 81 uM after 24 hrs by fluorescence based assay
[21] = system: Huh-7; assay: Upregulation of SIRT1 in human HuH7 cells assessed as fold change at 5 uM measured after 24 hrs by ELISA relative to control; format: functional
[22] = biological target: T1, NAD-dependent protein deacetylase sirtuin-1 (Homo sapiens); assay: Inhibition of human recombinant SIRT1 using FLUOR DE LYS SIRT1, deacetylase as substrate preincubated for 2 mins followed by substrate addition measured after 1 hr in presence of NAD+ by fluorescence assay
[23] = system: Huh-7; assay: Cytotoxicity against human HuH7 cells negative EpCAM/CD133 assessed as reduction in cell viability measured after 24 hrs by MTT assay; format: functional, cell-based; conditions: Huh-7, 24 h
[24] = system: Huh-7; assay: Upregulation of p21 expression in human HuH7 cells at 1 to 3 uM measured after 24 to 72 hrs by SYBR-green based qPCR analysis; format: functional, cell-based
[25] = system: Huh-7; assay: Cytotoxicity against human HuH7 cells expressing positive EpCAM/CD133 assessed as reduction in cell viability measured after 48 hrs by MTT assay; format: functional, cell-based; conditions: Huh-7, 48 h
[26] = system: Huh-7; assay: Induction of apoptosis in human HuH7 cells assessed as increase in early apoptotic cells at 10 uM measured after 48 hrs by Annexin V-FITC/propidium iodide staining based flow cytometry analysis; format: functional, cell-based
[27] = organism: Homo sapiens; assay: Inhibition of Sirtuin/HDAC in human HuH7 cells expressing positive EpCAM/CD133 assessed as decrease in cell viability measured after 24 hrs; format: cell-based

Histone-lysine N-methyltransferase EZH2 (Homo sapiens), sequence (Q15910 whole entry, looked up): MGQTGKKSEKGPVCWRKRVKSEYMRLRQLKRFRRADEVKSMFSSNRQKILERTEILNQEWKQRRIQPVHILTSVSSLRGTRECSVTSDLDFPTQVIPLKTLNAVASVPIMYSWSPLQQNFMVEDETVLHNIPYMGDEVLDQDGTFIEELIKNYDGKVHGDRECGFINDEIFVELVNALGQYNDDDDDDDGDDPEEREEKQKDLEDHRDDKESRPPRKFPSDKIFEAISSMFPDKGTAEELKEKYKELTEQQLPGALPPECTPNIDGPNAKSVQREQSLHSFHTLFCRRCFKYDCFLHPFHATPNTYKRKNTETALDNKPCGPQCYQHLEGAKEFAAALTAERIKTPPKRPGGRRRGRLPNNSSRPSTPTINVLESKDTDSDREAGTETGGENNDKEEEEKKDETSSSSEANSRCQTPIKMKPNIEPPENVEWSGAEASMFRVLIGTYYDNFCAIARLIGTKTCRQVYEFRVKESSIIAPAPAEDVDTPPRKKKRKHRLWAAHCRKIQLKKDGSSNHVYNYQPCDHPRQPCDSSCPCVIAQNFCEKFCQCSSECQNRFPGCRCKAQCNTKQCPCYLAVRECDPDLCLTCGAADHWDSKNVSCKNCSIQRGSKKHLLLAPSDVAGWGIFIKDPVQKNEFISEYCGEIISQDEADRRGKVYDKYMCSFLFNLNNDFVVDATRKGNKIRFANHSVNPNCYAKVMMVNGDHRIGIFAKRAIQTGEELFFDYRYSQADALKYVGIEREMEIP
Histone deacetylase 1 (Homo sapiens), sequence (Q13547 whole entry): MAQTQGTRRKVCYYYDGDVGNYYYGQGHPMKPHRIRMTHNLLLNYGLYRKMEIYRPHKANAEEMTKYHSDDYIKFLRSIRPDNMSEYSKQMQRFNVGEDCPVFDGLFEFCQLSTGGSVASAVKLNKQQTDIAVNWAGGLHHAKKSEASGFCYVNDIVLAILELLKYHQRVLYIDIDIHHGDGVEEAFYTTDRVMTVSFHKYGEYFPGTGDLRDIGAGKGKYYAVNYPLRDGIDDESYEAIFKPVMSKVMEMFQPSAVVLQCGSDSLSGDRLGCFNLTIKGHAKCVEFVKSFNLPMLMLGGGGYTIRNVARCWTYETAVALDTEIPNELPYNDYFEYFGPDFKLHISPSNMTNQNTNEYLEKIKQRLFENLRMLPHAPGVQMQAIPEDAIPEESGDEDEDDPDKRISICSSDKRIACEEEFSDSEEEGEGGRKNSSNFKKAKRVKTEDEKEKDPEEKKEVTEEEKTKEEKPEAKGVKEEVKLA
Exportin-1 (Homo sapiens), sequence (O14980 whole entry): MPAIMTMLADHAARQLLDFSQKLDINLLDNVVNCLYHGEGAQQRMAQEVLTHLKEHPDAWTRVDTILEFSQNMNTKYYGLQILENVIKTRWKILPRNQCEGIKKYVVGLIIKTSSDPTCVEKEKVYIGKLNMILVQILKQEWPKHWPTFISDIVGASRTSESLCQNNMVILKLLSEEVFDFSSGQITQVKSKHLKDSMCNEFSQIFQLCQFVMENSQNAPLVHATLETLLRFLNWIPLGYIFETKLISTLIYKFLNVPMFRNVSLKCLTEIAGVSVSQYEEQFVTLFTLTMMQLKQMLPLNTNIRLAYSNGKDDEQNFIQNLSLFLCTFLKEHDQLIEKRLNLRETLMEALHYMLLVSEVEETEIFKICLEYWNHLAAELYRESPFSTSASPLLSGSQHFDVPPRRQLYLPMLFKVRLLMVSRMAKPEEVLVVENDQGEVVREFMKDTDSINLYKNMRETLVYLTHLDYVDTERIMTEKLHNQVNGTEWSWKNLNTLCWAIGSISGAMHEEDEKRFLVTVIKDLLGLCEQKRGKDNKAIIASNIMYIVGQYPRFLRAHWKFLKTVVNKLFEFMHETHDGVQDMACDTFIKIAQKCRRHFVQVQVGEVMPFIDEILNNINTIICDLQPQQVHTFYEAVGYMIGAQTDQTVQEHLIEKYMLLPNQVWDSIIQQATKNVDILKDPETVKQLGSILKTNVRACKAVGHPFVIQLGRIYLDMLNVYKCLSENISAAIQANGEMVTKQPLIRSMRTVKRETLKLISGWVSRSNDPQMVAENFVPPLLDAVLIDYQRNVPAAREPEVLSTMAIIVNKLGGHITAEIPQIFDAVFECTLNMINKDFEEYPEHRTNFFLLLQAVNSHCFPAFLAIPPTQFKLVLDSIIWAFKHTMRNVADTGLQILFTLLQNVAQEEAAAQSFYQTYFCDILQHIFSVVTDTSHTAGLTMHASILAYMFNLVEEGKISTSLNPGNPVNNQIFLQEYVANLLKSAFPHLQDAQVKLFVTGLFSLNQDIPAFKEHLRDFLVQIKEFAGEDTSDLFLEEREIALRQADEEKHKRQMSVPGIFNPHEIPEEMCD

Structure (SMILES): Cc1ccc([C@H]2CC=CC(=O)O2)c2ccccc12
- inhibition [1]: 50%
- Activity [2]: Active
- inhibition [3]: Active
- fold change (FC) [4]: 3.3
- Activity [5]: Active
- Activity [6]: Active
- inhibition [7]: inactive
- Activity [8]: Active
- IC50 [9]: 1.25 µM
- Activity [10]: inactive
- Activity [11]: Active
- Activity [12]: Dose-dependent effect
- IC50 [13]: 0.1 µM
- Activity [14]: Active
- Activity [15]: Active
- IC50 [16]: 1.25 µM
- Activity [17]: Active
- Activity [18]: Active
- inhibition [19]: inactive
- inhibition [20]: inactive
- fold change (FC) [21]: 2
- inhibition [22]: Dose-dependent effect
- IC50 [23]: 10 µM
- Activity [24]: Active
- IC50 [25]: 2.5 µM
- Activity [26]: Active
- inhibition [27]: Active
